Experimental data published in patent publication US20100240745A1, “METHOD OF TREATMENT OF INFLAMMATION IN HYPERTENSIVE PATIENTS” (NICOX S.A., priority 2009, published 2010).
Marks after values point to notes of the source that are not given here.

Assay: 13-week double-blind, randomized clinical trial: office systolic blood pressure (SBP) in osteoarthritic patients with hypertension treated with renin-angiotensin system blockers
Format: in vivo, human
Details: for Difference in mean changes of SBP vs placebo / mean change in systolic blood pressure (SBP) vs baseline, mean ± SE / Difference in mean changes of SBP vs naproxen 500 mg: 13-week study; for mean change in systolic blood pressure (SBP) vs baseline, mean ± SE: osteoarthritic hypertensive patients on RAS blockers alone or with a diuretic; for blood pressure elevation / BP destabilization (result in words): osteoarthritic hypertensive patients treated with at least a renin-angiotensin system blocking agent
Procedure: Effects of 4-(nitrooxy)butyl(2S)-2-(6-methoxy-2-naphthyl)propanoate (naproxcinod) and naproxen on systolic blood pressure (SBP).
The effects of two twice daily drug regimens (375 mg bid and 750 mg bid) of 4-(nitrooxy)butyl(2S)-2-(6-methoxy-2-naphthyl)propanoate (naproxcinod) on systolic blood pressure (SBP) vs. naproxen and placebo were studied in a 13-week double-blind, randomized clinical trial involving 207 osteoarthritic patients and hypertension treated with renin-angiotensin system blockers alone or in combination with a diuretic.
Patients were sequentially randomized in a 1:1:1:1 ratio using a validated remote automated system to receive for the 13-week study treatment period one of 4 treatment groups: • naproxcinod 750 mg twice daily, • naproxcinod 375 mg twice daily, • naproxen 500 mg (equimolar dose of naproxcinod 750 mg) twice daily, or • placebo twice daily.
The office SBP was measured in a standardized fashion by mercury column or aneroid device in supine position, at rest, at baseline and 2, 6, and 13 weeks after study treatment initiation. SBP measurements were to be performed 2 to 4 hours post-morning dose.
The comparability of the patients in the 4 treatment groups was determined from the demographic data and baseline BP values.

Row | Structure (SMILES) | Difference in mean changes of SBP vs placebo (500 mg twice daily) | mean change in systolic blood pressure (SBP) vs baseline, mean ± SE (500 mg twice daily) [mmHg] | Difference in mean changes of SBP vs naproxen 500 mg (375 mg twice daily) [mmHg] | Difference in mean changes of SBP vs placebo (375 mg twice daily) [mmHg] | mean change in systolic blood pressure (SBP) vs baseline, mean ± SE (375 mg twice daily) [mmHg] | Difference in mean changes of SBP vs naproxen 500 mg (750 mg twice daily) [mmHg] | Difference in mean changes of SBP vs placebo (750 mg twice daily) | mean change in systolic blood pressure (SBP) vs baseline, mean ± SE (750 mg twice daily) [mmHg] | blood pressure elevation / BP destabilization (result in words) | blood pressure elevation / BP destabilization (result in words) (listed as 4-(nitrooxy)butyl(2S)-2-(6-methoxy-2-naphthyl)propanoate)
1 | COc1ccc2cc([C@H](C)C(=O)O)ccc2c1 [naproxen, reference compound] | 6.1** mmHg | 1.5 ± 1.9 |  |  |  |  |  |  |  | 
2 | COc1ccc2cc([C@H](C)C(=O)OCCCCO[N+](=O)[O-])ccc2c1 [naproxcinod, 4-(nitrooxy)butyl(2S)-2-(6-methoxy-2-naphthyl)propanoate] |  |  | −4.2 | 1.9 | −2.7 ± 1.7 | −6.5 | −0.4* mmHg | −5.0 ± 1.7 | less BP destabilization compared to naproxen | does not induce blood pressure elevation
